Legend:
[1] = system: corpus cavernosal strips (CCS); assay: EFS-induced relaxation of CCS of SCD transgenic mice and controls; type: cell-based, mouse
Procedure: FIG. 21. Priapic activity seen in SCD transgenic mice is dependent on elevated adenosine in penis via A2BR signaling. (a) Adenosine levels in the penis increased in SCD transgenic mice. Perchloric acid extracts of penile tissues from SCD transgenic mice and control mice were analyzed by HPLC to determine the levels of adenosine. The data are expressed as mean±SE. *p<0.005, (control n=5 and SCD transgenic mice n=6), SCD transgenic mice versus the controls. (b) Increased corpus cavernosum strips (CCS) relaxation by electrical field stimulation (EFS) in SCD transgenic mice. Relaxation effect of EFS with different voltages (0-30V) at 30 Hz and 0.5 ms pulse width, alternating polarity between pulses, in 10 μM phenylephrine-precontracted CCS from the controls (n=5) and SCD transgenic mice (n=5). (c-e) Prolonged penile erection seen in SCD transgenic mice is due to high levels of adenosine in the penis via A2BR signaling. Average EFS-induced relaxation from the PE-precontracted CC strips of the controls and SCD transgenic mice treated without or with PEG-ADA, MRS1706 or ZM241389. EFS-induced force change (c), duration of relaxation by EFS (d) and area under basal line (e) were representative of the CCS relaxation. (n=5 for the controls and n=5 for SCD transgenic mice with or without PEG-ADA, MRS1706 or ZM241389 treatment, respectively). Data are given as means±SE. *p<0.05, SCD transgenic mice versus the controls, **p<0.05, CCS of […] with PEG-ADA, MRS1706 or ZM241389 treatment versus CCS of SCD transgenic mice without treatment; ***p<0.05, CCS of the control mice with MRS1706 and/or L-NAME treatment versus CCS of the control mice without treatment.
Sickle cell disease (SCD) transgenic mice, expressing exclusively human sickle hemoglobin, were also used. These mice were age-matched, adult male homozygotes [SS^−/−, consisting of a transgene and two targeted gene deletions: (Tg (Hu-miniLCR alpha 1G gamma A gamma delta beta s) Hba0//Hba0 Hbb0//Hbb00) and heterozygotes (SS^−/+, SS^−/− genotype except Hbb0//Hbb+), developed on a mixed-strain background (mouse strains FVB/N, 129, DBA/2, C57BL/6, Black Swiss)^94,95.
Function experiments. The tunica albuginea was cut longitudinally, starting at the most proximal point of the corpus cavernosum (CC) toward the penile shaft, and the erectile tissue was partially dissected free from the tunica. One strip of tissue (0.3×0.3×3 mm) was obtained from each corpus cavernosum. The contractility of each isolated corpus cavernosum smooth muscle cells (CCSM) strip was measured using an isometric force transducer (AD Instrument Inc., Georgia, Vt., USA). The strip was mounted in a thermostatically controlled tissue bath containing aerated PSS (mM: 119 NaCl, 4.7 KCl, 24 NaHCO 3, 1.2 KH2PO4, 2.5 CaCl2, 1.2 MgSO4, 0.023 EDTA, and 11 glucose; 5 ml volume, 95% O2 and 5% CO2, 37° C.) and stretched to a resting tension of 0.1 mN. The contractile responses of the strips were analysed by adding 10 μM phenylephrine to the bath, and force changes were recorded in response to drug application and to electrical field stimulation. The particular electrical field stimulation parameters of 0-30V, 30 HZ with a pulse width of approximately 0.5 ms, are commonly used in the mice. […] The changes of cAMP and cGMP contents in CC strips were subsequently measured by commercial enzyme immunoassay kit (Amersham Pharmacia) (see below).

[2] = system: corpus cavernosal strips (CCS); assay: cAMP levels in isolated CCS (penile organ culture) in response to adenosine; type: cell-based, mouse
Procedure: FIG. 17. A2BR signaling is required for adenosine-mediated corpus cavernosal strips (CCS) relaxation. (a) CCS of wild type mice were treated with different concentrations of theophiline (1-10 μM) in the presence or absence of adenosine (100 μM). The force changes were measured by force transducer. Data are expressed as mean±SE. *p<0.05, adenosine treated versus the control, **p<0.05, theophiline treated versus the untreated, N=5. (b) CCS from wild type, A2AR, A1R A2BR and A3R-deficient mice were treated with different concentrations of adenosine. The relaxation was measured by force transducer. Data are expressed as mean±SE. *p<0.05, adenosine treated versus the wild type. […] 10 min after treatment, cellular extracts were collected and cAMP levels were measured by using a commercial enzyme immunoassay kit (Amersham Pharmacia). Data are expressed as mean±SE. *p<0.05, adenosine treated versus the control without treatment; **p<0.05, adenosine treated with MRS1706 versus the adenosine treated alone; ***p<0.05, CCS of A2BR-deficient mice treated with adenosine versus the CCS of wild type mice treated with adenosine. […]
In vitro corpus cavernosum tissue culture. […] Subsequently cavernosal strips were removed at and immediately frozen in liquid nitrogen for phosphorylation of myosin light chain determined by western blot analysis (see below). […]

[3] = system: multiple animal models, including humans; conditions: intracavernous injection, multiple animal models, including humans; cited from earlier work
[4] = CCS of SCD transgenic mice versus untreated CCS

SMILES	force, duration and area under baseline of EFS-induced relaxation [1, 4]	force, duration and area under baseline of EFS-induced relaxation ([1]; CCS of the controls)	adenosine-mediated induction of cAMP was inhibited ([2]; CCS, MRS1706 10 μM, L-NAME 100 μM)	tumescence and penile erection [3]	cAMP levels ([2]; wild type penile organ culture, 10 min)
CCCn1c(=O)c2[nH]c(-c3ccc(OCC(=O)Nc4ccc(C(C)=O)cc4)cc3)nc2n(CCC)c1=O [MRS1706]	reduced the force, duration and area under baseline	decreased the force, duration and area under baseline	inhibited		
Nc1nc(NCCc2ccc(O)cc2)nc2nc(-c3ccco3)nn12 [ZM241385]	not				
Nc1ncnc2c1ncn2[C@@H]1O[C@H](CO)[C@@H](O)[C@H]1O [adenosine]				resulted in tumescence and penile erection	induced cAMP levels in a dose-dependent manner

— US20100254965A1, “Adenosine Signaling in Diagnosis, Treatment, and Prevention of Priapism and Erectile Dysfunction” (BOARD OF REGENTS ,THE UNIVERSITY OF TEXAS SYSTEM, priority 2006, published 2010)
